Assay results taken from US11090364B2, “Conjugates of a pharmaceutical agent and a moiety capable of binding to a glucose sensing protein” (SANOFI, priority 2016, dated 2021).
Read-outs that look alike come from different tables or passages of the source. Blank lines part the entries; values can stand above or below the compound they belong to.

Assays:
[1] = tested on: A2780 Human Carcinoma Cells; experiment: Glucose displacement assay (ATP measurement, CellTiter-Glo); assay type: cell-based
Description: 2. Glucose Displacement Assay (ATP Measurement)
30.000 A2780 Human Carcinoma Cells are seeded per well in a Greiner 96-well plate. Cells are expanded and cultured in RPMI 1640 medium+GlutaMAX® with 10% FCS and 11 mM glucose, at 37° C. with 5% CO2. After 44 h, culture media is changed and washed once with PBS to starvation media consisting of RPMI 1640 medium with 1% FCS without glucose for 2 hours. Cells are then washed with KRB buffer, followed incubation for 20 min at 37° C. of the treatment mix consisting of: 60 μL KRB buffer/well with 10 μL of compound or DMSO 10×. 10 μl of rotenone is added to the mix to a final concentration of 0.5 μM. Cell plates are left for 2 min at room temperature. 20 μL of different glucose concentrations are added to the mix—typically 0.1 to 20 mM range -. Cells are incubated for another 15 min at 37° C., before measuring ATP with the CellTiter-Glo® Assay, under manufacturer's guidance, but without the equilibration step at room temperature for 30 min. In brief, 100 μl of Cell-Titer-Glo® Reagent is added to the wells containing already 100 μl of the previous reaction mix. Plates are mixed for 2 min at 800 rpm, followed by incubation at room temperature for 10 min to stabilize the luminescent signal. Luminescence is then recorded with the Tekan Ultra Evolution reader.

erythrocytes = experiment: Erythrocyte dialysis assay (6-NBD-Glc, Rapid Equilibrium Dialysis); assay type: binding, rat; conditions: for Fluorescence intensity in buffer compartiment, 1:1 Dilution k^off / Fluorescence intensity in buffer compartiment, 1:1 Dilution k^on: 6-NBD-Glc 25 μM; for Fluorescence intensity in buffer compartiment, 6-NBD-Glc [50 μM]: absence of glucose
Excerpt: 3. Erythrocyte Dialysis Assay
Here 6-NBD-Glc or alternatively 2-NBD-Glc was used in dialysis based competition experiments.
Freshly isolated heparinized rat blood samples were immideately diluted (1:5) in PBS buffer to generate a stable stock solution. This stock solution was further diluted (1:1 or 1:3) for the following dialysis experiments in Rapid Equilibrium Dialysis (RED) devices (Thermo Scientific Pierce).
The aforementioned stock solution was further diluted (1:1 or 1:3 respectively) and added to the dialysis compartiment of a RED device. In parallel stock solution was diluted (1:1) with buffer containing 6 NBD Glc (25 μM).
Dialyses was started by addition of 6 NBD Glc (25 μM) in PBS Buffer (k^on) or pure PBS buffer (ko^off) respectively into the buffer compartiment. Aliquots (20 μl) were taken after defined time intervals from the buffer compartiment and fluorescence was measured in a UV plate reader (Thermovarioskan, Thermo).
As a control, free diffusion of 6-NBD-Glc (25 μM) in PBS buffer vs pure buffer was measured.
Glucose dependency was determined following the protocol described above, comparing the following solutions: 6 NBD-Glc (100 μM), 6 NBD-Glucose (100 μM)+Glucose 20 mM. Data are shown in the next table
Example 102 was investigated in a competition experiment following the same protocol using a 6-NBD-Glc solution (100 μM) in comparison to 6 NBD-Glucose (100 μM)+Example 102 (50 μM).

IC50 ([1]; read-out: IC50): 84.8 µM
Compound: 6-Desoxy-6-(3-undecenyloxypheny)-4-piperazin-1-yl-D-galactopyranose [Example 141]

Compound: OC1O[C@H](CN2CCN(c3ccc(Cl)cc3)CC2)[C@H](O)[C@H](O)[C@H]1O (stereo partly drawn) [Example 102, (3R,4S,5R,6R)-6-[[4-(4-Chlorophenyl)piperazin-1-yl]methyl]tetrahydropyran-2,3,4,5-tetrol]
Fluorescence intensity of 6-NBD-Glc in competition with Example 102 [25 μM] (erythrocytes; 0 min, competition with 6-NBD-Glc): 0 AU | Fluorescence intensity of 6-NBD-Glc in competition with Example 102 [25 μM] (erythrocytes; 15 min, competition with 6-NBD-Glc): 4.9 AU | Fluorescence intensity of 6-NBD-Glc in competition with Example 102 [25 μM] (erythrocytes; 30 min, competition with 6-NBD-Glc): 11.1 AU | Fluorescence intensity of 6-NBD-Glc in competition with Example 102 [25 μM] (erythrocytes; 60 min, competition with 6-NBD-Glc): 12.5 AU | Fluorescence intensity of 6-NBD-Glc in competition with Example 102 [25 μM] (erythrocytes; 90 min, competition with 6-NBD-Glc): 19.3 AU | Fluorescence intensity of 6-NBD-Glc in competition with Example 102 [25 μM] (erythrocytes; 120 min, competition with 6-NBD-Glc): 25.1 AU | Fluorescence intensity of 6-NBD-Glc in competition with Example 102 [25 μM] (erythrocytes; 180 min, competition with 6-NBD-Glc): 32.1 AU | Slope of fluorescence intensity vs time in comparison to control (erythrocytes; competition with 6-NBD-Glc): clear increase in the slope

IC50 ([1]; Homo sapiens, 10 mM Gluc, read-out: IC50 @ 10 mM Gluc): > 100 µM | IC50 ([1]; Homo sapiens, read-out: IC50): 8.37 µM
Compound: COc1cc(C(=O)OC[C@H]2OC(O)[C@H](O)[C@@H](O)[C@@H]2O)cc(Cl)c1Oc1ccccc1 (some centres unmarked) [Example 138]

Compound: O=[N+]([O-])c1ccc(NC[C@H]2OC(O)[C@H](O)[C@@H](O)[C@@H]2O)c2nonc12 (some centres unmarked) [Example 6-NBD-Glc, 6-(N-(7-Nitrobenz-2-oxa-1,3-diazol-4-yl)amino)-6-Deoxyglucose]
Fluorescence intensity in buffer compartiment, 1:1 Dilution k^off (erythrocytes; 0 min): 0 AU | Fluorescence intensity in buffer compartiment, 1:1 Dilution k^on (erythrocytes; 0 min): 55 AU | Fluorescence intensity in buffer compartiment, NBD-Glc [50 μM] + Glc [10 mM] (erythrocytes; 0 min): 0 AU | Fluorescence intensity in buffer compartiment, 6-NBD-Glc [50 μM] (erythrocytes; 0 min): 0 AU | Fluorescence intensity in buffer compartiment, NBD-Glc [50 μM] + Glc [10 mM] (erythrocytes; 15 min): 7.2 AU | Fluorescence intensity in buffer compartiment, 6-NBD-Glc [50 μM] (erythrocytes; 15 min): 7.5 AU | Fluorescence intensity in buffer compartiment, 1:1 Dilution k^off (erythrocytes; 30 min): 3.4 AU | Fluorescence intensity in buffer compartiment, 1:1 Dilution k^on (erythrocytes; 30 min): 50.6 AU | Fluorescence intensity in buffer compartiment, NBD-Glc [50 μM] + Glc [10 mM] (erythrocytes; 30 min): 11.9 AU | Fluorescence intensity in buffer compartiment, 6-NBD-Glc [50 μM] (erythrocytes; 30 min): 10.6 AU | Fluorescence intensity in buffer compartiment, 1:1 Dilution k^off (erythrocytes; 60 min): 6.5 AU | Fluorescence intensity in buffer compartiment, 1:1 Dilution k^on (erythrocytes; 60 min): 45.1 AU | Fluorescence intensity in buffer compartiment, NBD-Glc [50 μM] + Glc [10 mM] (erythrocytes; 60 min): 17 AU | Fluorescence intensity in buffer compartiment, 6-NBD-Glc [50 μM] (erythrocytes; 60 min): 11.1 AU | Fluorescence intensity in buffer compartiment, 1:1 Dilution k^off (erythrocytes; 90 min): 12 AU | Fluorescence intensity in buffer compartiment, 1:1 Dilution k^on (erythrocytes; 90 min): 33 AU | Fluorescence intensity in buffer compartiment, NBD-Glc [50 μM] + Glc [10 mM] (erythrocytes; 90 min): 18.5 AU | Fluorescence intensity in buffer compartiment, 6-NBD-Glc [50 μM] (erythrocytes; 90 min): 14.9 AU | Fluorescence intensity in buffer compartiment, 1:1 Dilution k^off (erythrocytes; 120 min): 16.1 AU | Fluorescence intensity in buffer compartiment, 1:1 Dilution k^on (erythrocytes; 120 min): 34 AU | Fluorescence intensity in buffer compartiment, NBD-Glc [50 μM] + Glc [10 mM] (erythrocytes; 120 min): 20.3 AU | Fluorescence intensity in buffer compartiment, 6-NBD-Glc [50 μM] (erythrocytes; 120 min): 15.8 AU | Fluorescence intensity in buffer compartiment, NBD-Glc [50 μM] + Glc [10 mM] (erythrocytes; 180 min): 22.5 AU | Fluorescence intensity in buffer compartiment, 6-NBD-Glc [50 μM] (erythrocytes; 180 min): 16 AU | Free concentration of 6-NBD-Glc in presence of Glc [10 mM] (erythrocytes; Glc 10 mM versus absence of glucose): increased

IC50 ([1]; 10 mM Gluc, read-out: IC50 @ 10 mM Gluc): > 100 µM | IC50 ([1]; read-out: IC50): 33.2 µM
Compound: Methyl-2-O-(3-chloro-3′-methoxy-4-phenoxyphenylcarbonyl)-α-D-glucopyranoside [Example 124]
